Molecules are shown by their SMILES.

The record followed here is PMC5371667, “Targeting Bile Acid Receptors: Discovery of a Potent and Selective Farnesoid X Receptor Agonist as a New Lead in the Pharmacological Approach to Liver Diseases” (Frontiers in Pharmacology, 2017).

The subject of series [1] is bile acid pool in plasma and gallbladder. Put plainly: Bile acid pool in C57BL6 mice (LC-MS/MS).
Procedure: At the day of sacrifice livers, gallbladders, blood and feces were collected from mice for further analysis.
The stock solutions of the individual tauro-conjugated and un-conjugated BAs were prepared separately in methanol at a concentration of 1 mg/mL. All stock solutions were stored at –20°C. Calibration standards were prepared by combining appropriate volumes of each BA stock solution and methanol. […] Mice serum sample aliquots of 20 μL were mixed with 80 μL of CH3OH, shaken continuously, vortexed and, after centrifugation at 16000 g for 10 min, the clear supernatant was transferred to a new vial, snap frozen and lyophilized. The sample was then re-dissolved in 40% water/ 60% MeOH with 0.1% formic acid and ammonium acetate 5 mM. […] For gallbladder, 10 mg of lyophilized gallbladder were manually pestle using a mortar and dissolved in 1 mL CH3OH. After centrifugation at 16000 g for 10 min, 500 μL of supernatants were lyophilized and reconstituted in 100 μL of 40% water/60% MeOH with 0.1% formic acid and ammonium acetate 5 mM.
For LC-MS/MS analysis, chromatographic separation was carried out on the HPLC-MS system Q-TRAP 6500 LC-MS/MS System from AB Sciex equipped with Shimadzu LC-20A LC and AutoSampler system. The mixture was separated on a Synergi Fusion RP 4 m from Phenomenex (150 mm × 2.00 mm).
Tauro-conjugated and non-conjugated BAs were separated at a flow rate of 200 μL/min using a methanol–aqueous ammonium acetate (NH4OAc) gradient. Mobile phase A was water containing 5 mM ammonium acetate and 0.1% formic acid, mobile phase B was methanol, containing ammonium acetate at 5 mM and 0.1% formic acid. […] ESI was performed in negative ion mode and the ion source temperature was set at 280°C. The tune page parameters were automatically optimized injecting taurocholic acid at 1 μM as standard.
For series [2] the following is noted: mouse, in vivo, po, 50 mg/kg.
For another series, the target named is T1, LXRα (Homo sapiens, UniProt Q13133).
T1 construct: expressed in transfected cells; host or cells: HepG2
T1 sequence (Q13133 209-447 limits assumed): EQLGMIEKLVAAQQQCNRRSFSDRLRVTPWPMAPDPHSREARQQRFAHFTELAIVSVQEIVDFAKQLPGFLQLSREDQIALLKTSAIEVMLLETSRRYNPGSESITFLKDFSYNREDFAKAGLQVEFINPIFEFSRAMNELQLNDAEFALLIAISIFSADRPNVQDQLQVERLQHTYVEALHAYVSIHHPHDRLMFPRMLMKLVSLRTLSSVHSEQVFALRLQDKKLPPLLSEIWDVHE
The series is described as follows: LXRα transactivation on HepG2 cells (GAL4 LBD reporter). The series is classed as cell-based. To be noted: 10 μM. Here is the method: (§1) To evaluate LXRα and LXRβ mediated transactivation, HepG2 cells were transfected with 200 ng of the reporter vector p(UAS)5XTKLuc, 100 ng of a vector containing the ligand binding domain of LXRα or LXRβ cloned upstream of the GAL4-DNA binding domain (i.e., pSG5-LXRαLBD-GAL4DBD or pSG5-LXRβLBD-GAL4DBD) and 100 of pGL4.70 Renilla. At 24 h post-transfection, cells were stimulated 18 h with 10 μM compound 2 and GW3965 (GW, 10 μM) was used as positive control. To investigate the PPARα and PPARγ mediated transactivation, HepG2 cells were transiently transfected with 200 ng reporter vector p(UAS)9XTKLuc, 100 ng of a vector containing the ligand binding domain of PPARα or PPARγ cloned upstream of the GAL4-DNA binding domain (i.e., pSG5- PPARαLBD-GAL4DBD or pSG5- PPARγLBD-GAL4DBD) and 100 of pGL4.70 Renilla. For PPARα transactivation, cells were stimulated with 10 μM compound 2 and gemfibrozil (GEM, 10 μM) was used as positive control. For PPARγ transactivation, cells were stimulated with 10 μM compound 2 and rosiglitazone (ROSI, 100 nM) was used as a positive control. Luciferase activities were assayed and normalized with Renilla activities.

Series [3] has as its system FXR target genes SHP, OSTα, BSEP in HepG2 cells. The series is described as follows: RT-PCR of FXR target genes in HepG2 cells. The series is classed as cell-based, human. To be noted: 1 μM, 18 h, versus 6-ECDCA 1 μM. Here is the method: HepG2 cells were plated at 1 × 10^6 cells/well in a six well plate. After an overnight incubation, cells were starved and then stimulated for 18 h with compound 2 at 1 μM. Total RNA was isolated from HepG2 cells or liver tissues using the TRIzol reagent according to the manufacturer’s specifications (Invitrogen). One microgram of purified RNA was treated with DNase-I and reverse transcribed with Superscript II (Invitrogen). For Real Time PCR, 10 ng template was dissolved in 25 μL containing 200 nmol/L of each primer and 12.5 μL of 2× SYBR FAST Universal ready mix (Invitrogen). All reactions were performed in triplicate, and the thermal cycling conditions were as follows: 2 min at 95°C, followed by 40 cycles of 95°C for 20 s and 60°C for 30 s in StepOnePlus (Applied Biosystems). The relative mRNA expression was calculated accordingly to the Ct method. Primers were designed using the software PRIMER3^1 using published data obtained from the NCBI database. Forward and reverse primer sequences were the following: human GAPDH, […] and […]; human BSEP, […] and […]; human OSTα, […] and […]; human SHP, […] and […]; mouse NTCP, […] and […]; mouse CYP7A1, […] and […]; mouse FGF21, […] and […]; mouse GAPDH, […] and […]; mouse BSEP, […] and […]; mouse OSTα, […] and […]; mouse SHP, […] and […].

The target of a further series is T2, LXRβ (Homo sapiens, UniProt P55055).
T2 construct: expressed in transfected cells; host or cells: HepG2
T2 sequence (P55055 222-460 limits assumed): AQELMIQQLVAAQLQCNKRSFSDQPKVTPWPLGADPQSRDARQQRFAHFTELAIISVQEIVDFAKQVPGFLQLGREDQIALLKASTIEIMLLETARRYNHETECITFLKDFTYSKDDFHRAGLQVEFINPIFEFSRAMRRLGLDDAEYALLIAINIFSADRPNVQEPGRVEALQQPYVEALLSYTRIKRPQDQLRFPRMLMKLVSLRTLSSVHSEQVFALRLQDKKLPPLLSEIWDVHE
The series is described as follows: LXRβ transactivation on HepG2 cells (GAL4 LBD reporter). The series is classed as cell-based. To be noted: 10 μM. Here is the method: as §1

Consider `CC[C@H]1[C@@H](O)[C@@H]2[C@H](CC[C@]3(C)[C@@H]([C@H](C)CCC(=O)O)CC[C@@H]23)[C@@]2(C)CC[C@H](N=[N+]=[N-])C[C@@H]12` [compound 2, 3β-azido-6α-ethyl-7α-hydroxy-5β-cholan-24-oic acid], for which the “blood level of tHCA” value in series [1] (50 mg/kg) is “significantly reduced”. Moreover, in series [1] (50 mg/kg oral), the “level of tauro-deoxycholic acid (tDCA)” value was “reduction”; the “plasmatic and gallbladder levels of tauro-cholic acid (tCA)” value is “significantly reduced”; the “plasmatic and gallbladder levels of tauro-muricholic acid (tMu)” value was “significantly reduced”. Moreover, the “liver metabolism / tauro-conjugation” value in series [2] is “extensive liver metabolism”. In addition, at LXRα, the LXRα transactivation result was “unable in inducing”. Besides, in series [3], the “modulation of BSEP mRNA expression” value was “more potent than 6-ECDCA”, the “modulation of OSTα mRNA expression” value was “more potent than 6-ECDCA” and the “modulation of SHP mRNA expression” value was “equipotent with 6-ECDCA”. Moreover, at LXRβ, the LXRβ transactivation entry is “unable in inducing”.
